Test results taken from ChEMBL document CHEMBL3045073, “Synthesis of -amino carbonyl derivatives of coumarin and benzofuran and evaluation of their biological activity” (Med Chem Res, 2013).
Converted amounts (≈) assume the structure as drawn.

Columns and labels:
[1] = tested on: Chrysosporium keratinophilum; test: Antifungal activity against Chrysosporium keratinophilum assessed as growth inhibition at 50 mg/mL after 72 hr by agar well diffusion method; type: functional; settings: read-out: IZ
[2] = tested on: Aspergillus flavus; test: Antifungal activity against Aspergillus flavus assessed as growth inhibition after 72 hr by serial broth dilution method; type: functional
[3] = tested on: Aspergillus flavus; test: Antifungal activity against Aspergillus flavus assessed as growth inhibition at 50 mg/mL after 72 hr by agar well diffusion method; type: functional; settings: read-out: IZ
[4] = tested on: Chrysosporium keratinophilum; test: Antifungal activity against Chrysosporium keratinophilum assessed as growth inhibition after 72 hr by serial broth dilution method; type: functional
[5] = tested on: Candida albicans; test: Antifungal activity against Candida albicans MTCC227 assessed as growth inhibition after 72 hr by serial broth dilution method; settings: MTCC227, 72 h
[6] = tested on: Staphylococcus aureus; test: Antibacterial activity against Staphylococcus aureus ATCC 25923 assessed as growth inhibition at 50 mg/mL after 24 hr by agar well diffusion method; settings: ATCC 25923, 24 h, read-out: IZ
[7] = tested on: Radical scavenging activity; test: Antioxidant activity assessed as DPPH free radical scavenging activity at 100 ug/mL after 10 min UV-Vis spectrophotometric analysis relative to control; type: functional
[8] = tested on: Escherichia coli; test: Antibacterial activity against Escherichia coli ATCC 25922 assessed as growth inhibition at 50 mg/mL after 24 hr by agar well diffusion method; settings: ATCC 25922, 24 h, read-out: IZ
[9] = Metal chelating activity of the compound assessed as ferrous ion complex formation at 0.5 to 2 mg/mL after 10 min by spectrophotometric analysis
[10] = tested on: Pseudomonas aeruginosa; test: Antibacterial activity against Pseudomonas aeruginosa ATCC 27853 assessed as growth inhibition at 50 mg/mL after 24 hr by agar well diffusion method; type: functional; settings: ATCC 27853, 24 h, read-out: IZ
[11] = tested on: Pseudomonas aeruginosa; test: Antibacterial activity against Pseudomonas aeruginosa ATCC 27853 assessed as growth inhibition after 24 hr by serial broth dilution method; type: functional; settings: ATCC 27853, 24 h
[12] = tested on: Staphylococcus aureus; test: Antibacterial activity against Staphylococcus aureus ATCC 25923 assessed as growth inhibition after 24 hr by serial broth dilution method; settings: ATCC 25923, 24 h
[13] = tested on: Escherichia coli; test: Antibacterial activity against Escherichia coli ATCC 25922 assessed as growth inhibition after 24 hr by serial broth dilution method; settings: ATCC 25922, 24 h
[14] = tested on: Candida albicans; test: Antifungal activity against Candida albicans MTCC227 assessed as growth inhibition at 50 mg/mL after 72 hr by agar well diffusion method; settings: MTCC227, 72 h, read-out: IZ
[15] = tested on: Staphylococcus aureus; test: Antibacterial activity against Staphylococcus aureus ATCC 25923 assessed as growth inhibition at 0.5 to 1 mg/mL after 24 hr by agar well diffusion method
[16] = tested on: Escherichia coli; test: Antibacterial activity against Escherichia coli ATCC 25922 assessed as growth inhibition at 0.5 to 1 mg/mL after 24 hr by agar well diffusion method
[17] = tested on: Pseudomonas aeruginosa; test: Antibacterial activity against Pseudomonas aeruginosa ATCC 27853 assessed as growth inhibition at 0.5 to 1 mg/mL after 24 hr by agar well diffusion method; type: functional

Compound | zone of inhibition at 50000 µg/mL [1] | MIC [2] | zone of inhibition at 50000 µg/mL [3] | MIC [4] | MIC [5] | zone of inhibition at 50000 µg/mL [6] | Activity [7] | zone of inhibition at 50000 µg/mL [8] | Activity [9] | zone of inhibition at 50000 µg/mL [10] | MIC [11] | MIC [12] | MIC [13] | zone of inhibition at 50000 µg/mL [14] | inhibition zone (IZ) [15] | MIC ([15]; Staphylococcus aureus, ATCC 25923, 24 h) | inhibition zone (IZ) [16] | MIC ([16]; Escherichia coli, ATCC 25922, 24 h) | inhibition zone (IZ) [17] | MIC ([17]; Pseudomonas aeruginosa, ATCC 27853, 24 h)
O=C(O)c1ccc(NC(CC(=O)c2cc3ccccc3oc2=O)c2ccccc2)cc1 (centres undefined) | 13 mm | 250 µg/mL (≈ 605 µM) | 11 mm | 200 µg/mL (≈ 484 µM) | 150 µg/mL (≈ 363 µM) | 11 mm | 64.6% | 10 mm | 64.3% | 12 mm | 150 µg/mL (≈ 363 µM) | 100 µg/mL (≈ 242 µM) | 50 µg/mL (≈ 121 µM) | 17 mm | – | – | – | – | – | –
O=C(O)c1ccc(NC(CC(=O)c2cc3ccccc3o2)c2ccccc2)cc1 (centres undefined) | 2 mm | 500 µg/mL (≈ 1300 µM) | 3 mm | 500 µg/mL (≈ 1300 µM) | 400 µg/mL (≈ 1040 µM) | 3 mm | 52.2% | 3 mm | 69.6% | 3 mm | 500 µg/mL (≈ 1300 µM) | 450 µg/mL (≈ 1170 µM) | 500 µg/mL (≈ 1300 µM) | 2 mm | – | – | – | – | – | –
CN[C@@H]1[C@H](O[C@H]2[C@H](O[C@H]3[C@H](O)[C@@H](O)[C@H](N=C(N)N)[C@@H](O)[C@@H]3N=C(N)N)O[C@@H](C)[C@]2(O)C=O)O[C@@H](CO)[C@H](O)[C@H]1O [STREPTOMYCIN] | – | – | – | – | – | – | – | – | – | – | – | – | – | – | 12 mm | 30 µg/mL (≈ 51.6 µM) | 14 mm | 30 µg/mL (≈ 51.6 µM) | 13 mm | 30 µg/mL (≈ 51.6 µM)
